Data as given in patent US10206936B2, “Oxidized lipids and treatment or prevention of fibrosis” (Vascular Biogenics Ltd., priority 2014, dated 2019).
Several values for one entry are separate records, joined by “and”; a condition that tells them apart may be missing. Equal entries are not always repeated.

Tests used:
TGF-β = test: 5/6 nephrectomy rat model: kidney TGF-β mRNA, real-time PCR; assay type: in vivo, Sprague Dawley (SD) Rats; conditions: kidney of Nx rats, 8 weeks; for reduction of TGF-β mRNA expression vs Nx PBS 0.5% Eth: VB-201 4 mg/kg or telmisartan 10 mg/kg; for TGF-β relative mRNA expression (mean ± SEM): normalized to TBP, relative to Sham PBS 0.5% Eth
Source text: (§1) Rats were divided into three groups: (1) Healthy rats (n=3) in group A, (2) Sham group—subjected to chirurgical process but without kidney mass reduction (n=3) in group B, and (3) the rest were induced with chronic renal failure (n=24). Chronic renal failure was induced by a two stage (5/6) nephrectomy (Nx), with subtraction firstly of about ⅔ of the left kidney by left flank incision and, one week later, complete removal of the right kidney. General anesthesia consisted of intraperitoneal injection of ketamine 100 mg/kg and xylazine 20 mg/kg (0.85 ml ketamine+0.15 ml xylazine for each ml preparation; 1 μl/g BW was injected I.P).
(§2) Body weight (BW) was monitored throughout the study and rats were treated by oral gavage according to their body weight for 7 weeks. Rats were sacrificed by CO2 inhalation 8 weeks from removal of the right kidney (2nd surgery).
(§3) Kidney RNA was extracted with an RNeasy Fibrous Tissue Mini kit (Qiagen) and after DNAse I treatment, single-stranded cDNA was synthesized from 2 μg total RNA using the qScript cDNA Synthesis Kit (Quanta Biosciences) and diluted for real-time PCR. The expression of collagen 4a, fibronectin and TGFβ was quantified using the 7300 Real Time PCR System (Applied Biosystems). The assay was performed according to manufacturer instructions using the primers (Assay ID) represented at the table below supplied by Applied Biosystems. Data were normalized to the reference gene TATA-box Binding Protein (TBP) and presented as relative mRNA levels compared with Sham PBS 0.5% Eth treatment (Table 1).

Collagen IV = test: 5/6 nephrectomy rat model: kidney Collagen IV mRNA, real-time PCR; assay type: in vivo, Sprague Dawley (SD) Rats; conditions: kidney of Nx rats, 8 weeks; for reduction of Collagen IV mRNA expression vs Nx PBS 0.5% Eth: VB-201 4 mg/kg or telmisartan 10 mg/kg; for Collagen IV relative mRNA expression (mean ± SEM): normalized to TBP, relative to Sham PBS 0.5% Eth
Source text: as §1, §2, §3

nephrectomized rats [1] = test: 5/6 nephrectomy rat model: ED-1/CD68+ monocyte/macrophage infiltration, immunohistochemistry; assay type: in vivo, Sprague Dawley (SD) Rats; conditions: VB-201 4 mg/kg or telmisartan 10 mg/kg, 8 weeks after surgery; for ED-1/CD68+ Glomerular monocytes/macrophages (Mean ± S.E) / ED-1/CD68+ Interstitial monocytes/macrophages (Mean ± S.E): Nx rats
Source text: as §1, §2
Renal tissues were fixed in 4% formaldehyde and embedded in paraffin. The paraffin-embedded tissues were then cut to form tissue slides of 4 μm. Immunohistochemistry of the paraffin-embedded tissue slides was analyzed using antibodies in the following concentration: monoclonal mouse anti rat CD-68 (ED-1, Serotec MCA341) 1:25. For quantitation of interstitial CD68+ staining, the number of positive cells was counted in 20 randomly selected non-overlapping fields per animal, and the mean value was presented.

NASH mouse model = NASH mouse model (STZ + HFD): liver inflammation and fibrosis histology; assay type: in vivo; conditions: NASH mice; for reduction of liver inflammation (inflammation score) vs vehicle: VB-201 4 mg/kg or telmisartan 10 mg/kg once daily for three weeks
Experimental: Neonatal male mice exposed to low-dose streptozotocin (STZ) develop liver steatosis with diabetes. Continuous high fat diet (HFD) increases lobular inflammation with foam cell-like macrophages, showing nonalcoholic steatohepatitis (NASH) pathology. NASH was induced in 40 male mice by a single subcutaneous injection of 200 μg per mouse of STZ two days after birth and feeding HFD [57 kcal % fat]) from four weeks of age. Vehicle, VB-201 (4 mg/kg), or telmisartan (10 mg/kg) as positive control, were administered once daily for three weeks, starting from six weeks of age. Mice were sacrificed at nine weeks of age.
Liver pathology was used to determine the effect of VB-201 on liver inflammation and fibrosis. Histology slides were stained with hematoxylin/eosin (H&E) to assess inflammation. The inflammation score was determined as follows:
Histology slides were stained with Sirius red to determine collagen content as a marker for the extent of fibrosis.

nephrectomized rats [2] = test: 5/6 nephrectomy rat model: glomerular damage and sclerosis (PAS); assay type: in vivo, Sprague Dawley (SD) Rats; conditions: for Glomerular sclerosis, Global % (Mean ± S.E) / Glomerular sclerosis, Global & Segmental % (Mean ± S.E) / Glomerular sclerosis, Segmental % (Mean ± S.E): Nx rats, VB-201 4 mg/kg or telmisartan 10 mg/kg, 8 weeks; for reduction of damaged glomeruli vs Nx PBS 0.5% Eth / reduction of sclerotic glomeruli vs Nx PBS 0.5% Eth: VB-201 4 mg/kg or telmisartan 10 mg/kg oral, 7 weeks, evaluated at 8 weeks
Experimental: Male Sprague Dawley (SD) Rats (Harlan Laboratories, Israel) with an initial weight of 200 g were housed 2-3 per cage in IVC cages in dedicated HVAC (heat, ventilation, air conditioning) animal facility. The facility had no exposure to outside light and was maintained on automatic alternating cycles of 12 hours of light and 12 hours of dark. Animals were provided with a commercial rodent diet (Harlan Teklad TRM Rat/Mouse Diet) ad libitum and allowed free access to autoclaved water, supplied to each cage via polysulphone bottles with stainless steel sipper tubes. All animal work was approved by the Animal Care and Use Committee of Israel (IL-13-03-027).
as §1
One week following the second surgery, rats were randomly assigned to the following experimental groups:
Nephrectomized, orally administered with VB-201 4 mg/kg (n=8); and
Nephrectomized, orally administered with telmisartan 10 mg/kg as positive control (n=8).
as §2
Upon sacrifice, at 8 weeks, kidneys were collected, weighed and fixed in 4% formaldehyde.
For light microscopy, paraffin-embedded tissue slides of 4 μm were stained with Periodic Acid-Schiff (PAS) reagent.
Glomerulosclerosis was assessed by PAS-stained sections using a semiquantitative scoring system. The extent of glomerulosclerosis was evaluated by examining mostly 100 randomly selected glomeruli at a magnification of ×400 and applying a score system according to the percentage of sclerosed glomerular area. The score was graded from 0 to 4: (0=0% area; 1=1-25%; 2=26-50%, 3=51-75%, 4=76% and above). The mean of all scored glomeruli was presented. Moreover, the extent of global and segmental glomerulosclerosis was evaluated in the same glomeruli, where <80% sclerosis was referred to as segmental and >80% was referred to as global.
The glomerular area of mostly 100 randomly selected glomeruli at a magnification of ×100 was quantitated by counting squares covered by glomeruli area using a grid and the mean glomeruli area was calculated.
Glomeruli were evaluated for their fibrosis extent by scoring and by calculation of the percent of glomeruli having segmental sclerosis, global sclerosis and the sum of global and segmental sclerotic glomeruli. Moreover, the area of the glomeruli was calculated and the percent of hypertrophied glomeruli was calculated. Damaged glomeruli included hypertrophied (at least ×1.5 from normal area) and or sclerotic glomeruli.

| SMILES | reduction of TGF-β mRNA expression vs Nx PBS 0.5% Eth (TGF-β) [%] | TGF-β relative mRNA expression (mean ± SEM) (TGF-β) | reduction of Collagen IV mRNA expression vs Nx PBS 0.5% Eth (Collagen IV) [%] | Collagen IV relative mRNA expression (mean ± SEM) (Collagen IV) | ED-1/CD68+ Glomerular monocytes/macrophages (Mean ± S.E) (nephrectomized rats [1]) | ED-1/CD68+ Interstitial monocytes/macrophages (Mean ± S.E) (nephrectomized rats [1]) | reduction of number of glomerular monocytes/macrophages vs Nx PBS 0.5% Eth (nephrectomized rats [1]) [%] | reduction of number of interstitial monocytes/macrophages vs Nx PBS 0.5% Eth (nephrectomized rats [1]) [%] | decrease of extent of liver fibrosis (Sirius red fibrosis area) vs vehicle (NASH mouse model; VB-201 4 mg/kg once daily for three weeks) | reduction of liver inflammation (inflammation score) vs vehicle (NASH mouse model) [%] | Glomerular sclerosis, Global % (Mean ± S.E) (nephrectomized rats [2]) [%] | Glomerular sclerosis, Global & Segmental % (Mean ± S.E) (nephrectomized rats [2]) [%] | Glomerular sclerosis, Segmental % (Mean ± S.E) (nephrectomized rats [2]) [%] | reduction of damaged glomeruli vs Nx PBS 0.5% Eth (nephrectomized rats [2]) [%] | reduction of sclerotic glomeruli vs Nx PBS 0.5% Eth (nephrectomized rats [2]) [%] |
| --- | --- | --- | --- | --- | --- | --- | --- | --- | --- | --- | --- | --- | --- | --- | --- |
| CCCCCCCCCCCCCCCCOCC(COP(=O)([O-])OCC[N+](C)(C)C)OCCCCC(=O)O (centres unmarked) [VB-201, 1-hexadecyl-2-(4′-carboxybutyl)-glycero-3-phosphocholine] | 37 | 5.3±0.33 | 42 | 4.3±0.33 | 2.113±0.374 Cells/Glomeruli and 2.113 Cells/Glomeruli | 269.25±25.41 Cells/mm^2 and 269.3 Cells/mm^2 | 42 | 49 | about 34% | 65 | 5.4 ± 3.22 | 31.8 ± 4.92 | 26.5 ± 4.39 | 29 | 34 |
| CCCc1nc2c(C)cc(-c3nc4ccccc4n3C)cc2n1Cc1ccc(-c2ccccc2C(=O)O)cc1 [telmisartan, reference compound] | 44 | 4.7±0.52 | 41 | 4.4±0.23 | 3.185±0.427 Cells/Glomeruli and 3.185 Cells/Glomeruli | 421.0±61.77 Cells/mm^2 and 421.0 Cells/mm^2 | 13 | 20 | – | 77 | 1.9 ± 1.60 | 21.0 ± 5.45 | 19.1 ± 4.30 | 31 | 57 |
